Source: PubChem BioAssay (NCI)
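Assay format: 96-well plates, 48-hour exposure. GI50 is the concentration that inhibits growth by half. TGI: total growth inhibition.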

Columns and labels:
Test in all cases: growth of human tumour cells (NCI), 48 h
U251 CNS = system: U251 CNS
LOX IMVI melanoma = system: LOX IMVI melanoma
OVCAR-4 ovarian = system: OVCAR-4 ovarian
UACC-257 melanoma = system: UACC-257 melanoma
MCF7 breast = system: MCF7 breast
HOP-62 NSCLC = system: HOP-62 NSCLC
SNB-75 CNS = system: SNB-75 CNS
SF-539 CNS = system: SF-539 CNS
HS 578T breast = system: HS 578T breast
HCT-116 colon = system: HCT-116 colon

| SMILES | GI50 (U251 CNS) | TGI (U251 CNS) | GI50 (LOX IMVI melanoma) | TGI (LOX IMVI melanoma) | GI50 (OVCAR-4 ovarian) | TGI (OVCAR-4 ovarian) | GI50 (UACC-257 melanoma) | TGI (UACC-257 melanoma) | GI50 (MCF7 breast) | TGI (MCF7 breast) | GI50 (HOP-62 NSCLC) | TGI (HOP-62 NSCLC) | GI50 (SNB-75 CNS) | TGI (SNB-75 CNS) | GI50 (SF-539 CNS) | TGI (SF-539 CNS) | GI50 (HS 578T breast) | TGI (HS 578T breast) | GI50 (HCT-116 colon) | TGI (HCT-116 colon) |
| --- | --- | --- | --- | --- | --- | --- | --- | --- | --- | --- | --- | --- | --- | --- | --- | --- | --- | --- | --- | --- |
| CN(C)c1ccc(-c2cc(-c3cccc(NS(C)(=O)=O)c3)nc(N)c2C#N)cc1 | 0.0418 µM | 20.4 µM | 0.0466 µM | 13.5 µM | 0.522 µM | 53.8 µM | 0.0563 µM | 44.6 µM | 0.238 µM | 17.9 µM | 0.045 µM | 29.6 µM | 0.0272 µM | 3.22 µM | 0.0279 µM | 0.173 µM | 0.0292 µM | 49.2 µM | 0.0404 µM | 2.19 µM |
| COC(=O)[C@@H](C)C[C@H](Cc1ccccc1)NC(=O)c1nc([C@@H](C[C@H](C(C)C)N(C)C(=O)[C@@H](NC(=O)[C@H]2CC(=O)CCN2C)C(C)C)OC(C)=O)sc1C(C)C | 0.352 µM | > 10.5 µM | 0.11 µM | > 16.7 µM | 1.34 µM | > 16.7 µM | > 10.8 µM | > 16.7 µM | 0.0427 µM | > 16.7 µM | 0.694 µM | > 16.7 µM | 0.0518 µM | > 15 µM | 0.345 µM | 0.967 µM | 0.16 µM | > 3.85 µM | 0.169 µM | 3.04 µM |
| COc1cc(F)c(F)c(F)c1C(=O)c1cnc(NC2CCN(S(C)(=O)=O)CC2)nc1N | 0.78 µM | > 25 µM | 1.04 µM | > 13 µM | 3.29 µM | > 25 µM | 3 µM | 14 µM | 0.166 µM | > 25 µM | 2.11 µM | 16.2 µM | 3.65 µM | 8.75 µM | 1.24 µM | 6.06 µM | 3.17 µM | 18.1 µM | 0.56 µM | > 25 µM |
| OC1(c2ccccc2)c2ccccc2N(c2ccccc2)c2ccc(Cl)cc21 (stereo not given) | 0.201 µM | 0.536 µM | 0.179 µM | 0.348 µM | 0.313 µM | 1.39 µM | 0.201 µM | 0.72 µM | 0.299 µM | 0.894 µM | 0.328 µM | 1.23 µM | 0.293 µM | 1.11 µM | 0.236 µM | 0.683 µM | 0.332 µM | 1.81 µM | 0.234 µM | 0.602 µM |
| O=C(c1ccco1)c1c(C(F)(F)F)n([O-])c2cc(Cl)c(Cl)cc2[n+]1=O | 0.705 µM | 1.43 µM | 0.169 µM | 0.52 µM | 4.17 µM | 12.7 µM | 0.761 µM | 2.15 µM | 0.123 µM | 0.452 µM | 0.316 µM | 1 µM | 6.16 µM | 13.6 µM | 0.768 µM | 1.53 µM | 0.706 µM | 1.98 µM | 0.269 µM | 0.921 µM |
| O=C(/C=C/c1c[nH]c2ccccc12)c1ccccc1O |  | 40.4 µM |  | 21.7 µM |  | 27 µM |  | 31.5 µM |  | 18.7 µM |  | 28.1 µM |  | 27.2 µM |  | 25.1 µM |  | 66.7 µM |  | 26 µM |
| Cc1n[nH]c(C)c1-c1c(C)n[nH]c1C | 1.64 µM | 3.76 µM | 1.57 µM | 3.06 µM | 2.28 µM | 6.38 µM | 2.18 µM | 5.68 µM | 1.66 µM | 3.79 µM | 2.4 µM | 9.11 µM | 1.7 µM | 4.43 µM | 1.73 µM | 3.35 µM | 2.26 µM | 16.9 µM | 1.48 µM | 3.01 µM |
| FC(F)(F)c1ccc(-c2cnc(-c3nn[nH]n3)nc2NC2CCCCCC2)cc1 | > 10 µM | > 10 µM | > 10 µM | > 10 µM | > 10 µM | > 10 µM | > 10 µM | > 10 µM | > 10 µM | > 10 µM | > 10 µM | > 10 µM | > 10 µM | > 10 µM | > 10 µM | > 10 µM | > 10 µM | > 10 µM | > 10 µM | > 10 µM |
| COc1cnc2c(c1)C(=O)c1c-2n(CCCN2CCNCC2)c(=O)c2cc(F)ccc12 | 0.0841 µM | 1.05 µM | 0.18 µM | 1.32 µM | 0.892 µM | 2.49 µM | 1.29 µM | 2.69 µM | 0.0345 µM | 1.41 µM | 0.0665 µM | 0.352 µM | 0.368 µM | 2.87 µM | 0.532 µM | 1.83 µM | 2.08 µM | 16.9 µM | 0.0919 µM | 1.31 µM |
| CS(=O)c1cc(=O)c2ccccc2s1 (stereo not given) |  | 22.1 µM |  | 9.02 µM |  | 5.95 µM |  | 7.26 µM |  | 14.4 µM |  | 44.2 µM |  | 24.4 µM |  | 18.4 µM |  | 62.7 µM |  | 5.11 µM |
| Nc1ncnc2c1ncn2C1SC(CO)C(O)C1O (stereo not given) | 27 µM | > 100 µM | 18.5 µM | 48.4 µM | 34.6 µM | > 100 µM | > 100 µM | > 100 µM | 3.21 µM | 31.6 µM | 24.9 µM | 91.2 µM | 16.8 µM | 46.3 µM | 19.7 µM | 50.1 µM | 70.5 µM | > 100 µM | 13.5 µM | 50.3 µM |
| C=C(C)[C@@H]1CC[C@]2(C(=O)OC)CC[C@]3(C)[C@H](CC[C@@H]4[C@@]5(C)CC/C(=N\OCCC(=NCCC#N)NOCCC#N)C(C)(C)[C@@H]5CC[C@]43C)[C@@H]12 | 4.3 µM | 12.4 µM | 4.32 µM | 10.4 µM | 12.3 µM | > 50 µM | 5.35 µM | > 50 µM | 3.68 µM | > 50 µM | 12.5 µM | > 50 µM | 31.2 µM | > 50 µM | 11 µM | > 50 µM | 30.2 µM | > 50 µM | 2.89 µM | > 50 µM |
| CC1SC(c2ccc(OCc3ccccc3)cc2)N(NC(=O)C(O)(c2ccccc2)c2ccccc2)C1=O (stereo not given) | 4.06 µM | 15.3 µM | 3.87 µM | 14.6 µM | 5.13 µM | 36 µM | 7.39 µM | 21.3 µM | 4.37 µM | 22.4 µM | 2.01 µM | 8.1 µM | 3.72 µM | 18.1 µM | 14 µM | 42.6 µM | 1.94 µM | 7.15 µM | 1.76 µM | 4.71 µM |
